The target in the assay is T1, human CXCR3 (N-delta 4) (Homo sapiens, UniProt P49682).
T1 construct: CD8 leader; Flag tag; expressed in transfected cells; membrane preparation
T1 sequence (P49682 5-368 limits assumed): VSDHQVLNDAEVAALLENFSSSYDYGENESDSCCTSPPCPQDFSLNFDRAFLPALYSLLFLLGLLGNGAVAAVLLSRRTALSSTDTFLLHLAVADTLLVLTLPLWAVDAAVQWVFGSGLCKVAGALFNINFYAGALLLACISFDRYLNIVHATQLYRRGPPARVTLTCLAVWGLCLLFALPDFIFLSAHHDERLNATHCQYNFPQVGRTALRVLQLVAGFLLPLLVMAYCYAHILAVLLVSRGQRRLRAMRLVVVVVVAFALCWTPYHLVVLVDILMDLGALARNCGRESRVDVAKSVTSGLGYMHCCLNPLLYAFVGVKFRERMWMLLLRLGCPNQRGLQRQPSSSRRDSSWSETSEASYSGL
Nature of the assay: Human CXCR3 (N-delta 4) scintillation proximity binding assay ([125I] IP-10 displacement). The source says: The inventive compounds can readily be evaluated to determine activity at The CXCR3 receptors by known methods, such as, for example, Development of Human CXCR3 (N-delta 4) Binding Assay.
Cloning and Expression of Human CXCR3 (N-Delta 4):
The DNA encoding human CXCR3 was cloned by PCR using human genomic DNA (Promega, Madison, Wis.) as a template. The PCR primers were designed based on the published sequence of human orphan receptor GPR9 (1) with incorporated restriction sites, a Kozak consensus sequence, CD8 leader and Flag tag. The PCR product was subcloned into the mammalian expression vector pME18Sneo, a derivative of the SR-alpha expression vector (designated as pME18Sneo-hCXCR3 (N-delta 4).
IL-3-dependent mouse pro-B cells Ba/F3 were transfected by electroporation in 0.4 ml Dulbecco's PBS containing 4×10^6 cells with 20 μg of pME18Sneo-hCXCR3 (N-delta 4) plasmid DNA. Cells were pulsed at 400 Volts, 100 OHMs, 960 μFd. The transfected cells were under selection with 1 mg/ml G418 (Life Technologies, Gaithersburg, Md.). G418-resistant Ba/F3 clones were screened for CXCR3 expression by specific binding of [^125I] IP-10 (NEN Life Science Products, Boston, Mass.).
Preparation of Ba/F3-hCXCR3 (N-Delta 4) Membranes
Ba/F3 cells expressing human CXCR3 (N-delta 4) were pelleted and resuspended in the lysis buffer containing 10 mM HEPES, pH 7.5 and Complete® protease inhibitors (1 tablet per 100 ml) (Boehringer Mannheim, Indianapolis, Ind.) at a cell density of 20×10^6 cells per ml. After 5 minutes incubation on ice, cells were transferred to 4639 cell disruption bomb (Parr Instrument, Moline, Ill.) and applied with 1,500 psi of nitrogen for 30 minutes on ice. Large cellular debris was removed by centrifugation at 1,000×g. Cell membrane in the supernatant was sedimented at 100,000×g. The membrane was resuspended in the lysis buffer supplemented with 10% sucrose and stored at −80° C. Total protein concentration of the membrane was determined by BCA method from Pierce (Rockford, Ill.).
Human CXCR3 (N-Delta 4) Scintillation Proximity Assay (SPA)
For each assay point, 2 μg of membrane was preincubated for 1 hr with 300 μg wheat germ agglutinin (WGA) coated SPA beads (Amersham, Arlington Heights, Ill.) in the binding buffer (50 mM HEPES, 1 mM CaCl2, 5 mM MgCl2, 125 mM NaCl, 0.002% NaN3, 1.0% BSA) at room temperature. The beads were spun down, washed once, resuspended in the binding buffer and transferred to a 96-well Isoplate (Wallac, Gaithersburg, Md.). 25 pM of [^125I] IP-10 with tested compounds in a series of titration were added to start the reaction. After 3 hr reaction at room temperature, the amount of [^125I]; IP-10 bound to the SPA beads was determined with a Wallac 1450 Microbeta counter.

[1] abbreviates: human CXCR3, Table 1, read-out: Ki rating.
Setting [2] is: Human CXCR3, Table 2, read-out: Ki.

The structures appear in SMILES notation. Like-named read-outs stand apart in the source and are kept apart here.

In the case of `CC[C@H]1CN(c2ccc(-c3nnc(N)o3)nc2C)[C@H](C)CN1C1CCN(C(=O)c2ccc(Cl)c(F)c2)CC1` [Compound 13], the Ki under setting [1] lay within 25 to 100 nM. With `CC[C@H]1CN(c2ccc(-c3nnc(N)o3)nc2C)CCN1C1CCN(Cc2ccc(OC(F)(F)F)cc2)CC1` [Compound 3], the Ki under setting [2] amounted to 0.5 nM and the inhibition constant Ki under setting [1] is under 25 nM.

Regarding `CC[C@H]1CN(c2ccc(-c3nnc(N)o3)nc2C)CCN1C1CCN(C(=O)c2ccc(F)c(F)c2)CC1` [Compound 9], the Ki under setting [1] is under 25 nM.

Consider `CC[C@H]1CN(c2ccc(-c3nnc(N)o3)nc2C)CCN1C1CCN(C(=O)c2ccc(Cl)cc2)CC1` [Compound 15], for which the Ki runs as follows: under setting [2], 2.4 nM; under setting [1], under 25 nM. On to `CC[C@H]1CN(c2ccc(-c3nnc[nH]3)nc2C)CCN1C1CCN(C(=O)c2ccc(Cl)c(F)c2)CC1` [Compound 6], for which the inhibition constant (Ki) under setting [1] is under 25 nM.

Regarding `CCNc1nnc(-c2ccc(N3CCN(C4CCN(C(=O)c5ccc(Cl)cc5)CC4)[C@@H](CC)C3)c(C)n2)o1` [Compound 4], the Ki under setting [1] is under 25 nM. Same read-out and setting: in the case of `CCNc1nnc(-c2ccc(N3C[C@H](CC)N(C4CCN(C(=O)c5ccc(Cl)c(F)c5)CC4)C[C@H]3C)c(C)n2)o1` [Compound 10] it was 25 to 100 nM. Consider `CCNc1nnc(-c2ccc(N3C[C@H](CC)N(C4CCN(Cc5ccc(Cl)cc5)CC4)C[C@H]3C)c(C)n2)o1` [Compound 2], for which the Ki under setting [2] is 0.4 nM and the Ki under setting [1] was under 25 nM.

`CC[C@H]1CN(c2ccc(-c3nnc(N)o3)nc2C)[C@H](C)CN1C1CCN(C(=O)c2ccc(Cl)cc2)CC1` [Compound 12]: under setting [1], the Ki was 25 to 100 nM. The same measure, in the same setting: to `CC[C@H]1CN(c2ccc(-c3nnc(N)o3)nc2C)CCN1C1CCN(C(=O)c2ccc(Cl)c(F)c2)CC1` [Compound 7] belongs under 25 nM.

With `CCNc1nnc(-c2ccc(N3CCN(C4CCN(Cc5ccc(Cl)cc5)CC4)[C@@H](CC)C3)c(C)n2)o1` [Compound 1], the Ki by setting is: under setting [1], under 25 nM; (human CXCR3, read-out: Ki) 0.2 nM. In the case of `CCNc1nnc(-c2ccc(N3C[C@H](CC)N(C4CCN(C(=O)c5ccc(Cl)cc5)CC4)C[C@H]3C)c(C)n2)o1` [Compound 11], the Ki under setting [1] was 25 to 100 nM. With `CCNc1nnc(-c2ccc(N3CCN(C4CCN(C(=O)c5ccc(Cl)c(F)c5)CC4)[C@@H](CC)C3)c(C)n2)o1` [Compound 5], under setting [1], the Ki was under 25 nM. For `CC[C@H]1CN(c2ccc(-c3nnc(N)o3)nc2C)CCN1C1CCN(Cc2ccc(Cl)cc2)CC1` [Compound 14], the Ki by setting is: under setting [2], 0.3 nM; under setting [1], under 25 nM.

Turning to `CCNc1nnc(-c2ccc(N3CCN(C4CCN(C(=O)c5ccc(F)c(F)c5)CC4)[C@@H](CC)C3)c(C)n2)o1` [Compound 8], under setting [1], the Ki was under 25 nM.

By Ki is commonly meant a dissociation constant, usually derived from enzyme kinetics or from competition with a known ligand.

The record behind these values is patent US7786124B2, “Heterocyclic substituted pyridine compounds with CXCR3 antagonist activity” (Schering Corporation, priority 2006, dated 2010).
